Where two headings read alike, the source gives them in different places.
Legend:
[1] = biological target: T1, 5α-reductase type 1 isozyme (Rattus norvegicus, UniProt P24008); assay: Enzyme inhibition test, 5α-reductase type 1 (pH 6.6); format: biochemical
T1 sequence (P24008 1-259): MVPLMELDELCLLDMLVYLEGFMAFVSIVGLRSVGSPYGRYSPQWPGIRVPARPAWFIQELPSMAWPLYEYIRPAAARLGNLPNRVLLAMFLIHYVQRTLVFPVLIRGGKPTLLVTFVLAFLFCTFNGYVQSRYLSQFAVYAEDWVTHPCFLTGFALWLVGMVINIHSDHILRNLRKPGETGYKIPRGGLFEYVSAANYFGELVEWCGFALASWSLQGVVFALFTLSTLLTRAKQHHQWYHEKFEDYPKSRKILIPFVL
Procedure: (§1) Female rats were sacrificed and liver were taken within 5 min. All the following steps were performed at 0–4 °C. 1 g liver was cut into 3 mm pieces and added to 3 times volume of PBS. The tissue was homogenized and centrifuged at 10,000 g for 30 min. The supernatant was collected and centrifuged repeatedly at 100,000 for 1 h. The pellet obtained was resuspended in phosphate buffer (contained 30% glycerol, 1:3 v/v) and stored at −70 °C. The incubation mixture contained 50 µL enzyme solution, 6 µL NADPH (80 µM), 6 µL T (20 µM), and 108 µL buffer with or without test compound. The negative control contained 50 µL enzyme solution, 6 µL NADPH (80 µM) and 114 µL buffer. The incubation was carried out for 30 min at 37 °C. The fluorescence decay rate was tested in 10 min at 37 °C.
(§2) The inhibitory activities of the synthesized compounds were then assessed towards the 5α-reductase 1 and 2 isozymes, respectively. Finasteride was used as positive control.

[2] = biological target: T2, 5α-reductase type 2 isozyme (Rattus norvegicus, UniProt P31214); assay: Enzyme inhibition test, 5α-reductase type 2 (pH 5.5); format: biochemical
T2 sequence (P31214 1-254): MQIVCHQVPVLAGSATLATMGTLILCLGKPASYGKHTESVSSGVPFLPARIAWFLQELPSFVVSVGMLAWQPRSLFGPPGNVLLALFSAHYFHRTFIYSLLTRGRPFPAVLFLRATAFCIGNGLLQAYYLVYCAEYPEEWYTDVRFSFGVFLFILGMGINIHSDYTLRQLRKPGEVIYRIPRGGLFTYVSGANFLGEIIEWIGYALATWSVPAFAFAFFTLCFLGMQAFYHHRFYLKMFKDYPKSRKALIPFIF
Procedure: as §1, §2

22RV1 cells = assay: MTT anti-proliferation assay, T-stimulated 22RV1; format: cell-based, Human; details: for Effect on cell viability of T-treated 22RV1 cells: different concentrations of compound with 0.1 μM T, Figure 3
Procedure: Human prostate carcinoma 22RV1 (CRL-2505, ATCC) and PC-3 (CRL-1435, ATCC) cells were cultured in RPMI-1640 medium (Invitrogen), supplemented with 10% (v/v) foetal calf serum (FCS) (Invitrogen), 1% (v/v), penicillin and streptomycin (Invitrogen) at 37 °C with 5% CO2 in a humidified atmosphere. Fresh medium was given every second day and on the day before the experiments were done. Cells were passaged at preconfluent densities, using a solution containing 0.05% trypsin.
The anti-cancer activity in vitro was measured using the MTT assay. Exponentially growing cells were harvested and plated in 96-well plates at a concentration of 1 × 10^4 cells/well. After 24 h incubation at 37 °C under a humidified 5% CO2 to allow cell attachment, the cells in the wells were respectively treated with target compounds at various concentrations for 48 h. […] A solution of 3–(4,5-dimethylthizao1-2-y1)-2,5-diphenyltetrazolium bromide (MTT), was prepared at 5 mg/ml in phosphate buffered saline (PBS: 1.5 mM KH2PO4, 6.5 mM Na2HPO4, 137 mM NaCl, 2.7 mM KCl; pH 7.4). Of this solution 20 µl was added to each well. After incubation for 4 h at 37 °C in a humidified incubator with 5% CO2, the medium/MTT mixtures were removed, and the formazan crystals formed by the mitochondrial dehydrogenase activity of vital cells were dissolved in 100 µl of DMSO per well. The absorbance of the wells was read with a microplate reader at 570 nm. Effects of the drug cell viability were calculated using cell treated with DMSO as control.
The anti-proliferative activities were firstly evaluated against 22RV1 stimulated by 0.1 µM T or not. […] Although androst[3,2-c]pyrazoleis common in anabolic steroid, luckily these derivatives shown no androgen agonistic activity. The phenethylamino substituted compounds (7d, 8d, and 9d) and piperidine substituted compounds (7b, 8b, and 9b) were more efficient than others. […] As presented in Figure 3, 0.1 µm of T was selectedas the most adequate to induce proliferation of 22RV1 cells. […] Compound 9d caused a much more significant decrease in cell viability for all concentrations than flutamide. […]

[3] = 1 μM compound, pH 6.6, rat liver enzyme preparation, read-out: Type 1 (pH 6.6) Inh% (1 μM)
[4] = 1 μM compound, pH 5.5, rat liver enzyme preparation, read-out: Type 2 (pH 5.5) Inh% (1μM)
[5] = pH 6.6, read-out: Type 1 (pH 6.6) Inh% (1 μM)
[6] = pH 5.5, read-out: Type 2 (pH 5.5) Inh% (1μM)
[7] = pH 6.6, rat liver enzyme preparation, read-out: Type 1 (pH 6.6) IC50

Compound: CC(C)CNC(=O)[C@H]1CCC2C3CCC4=CC(=O)/C(=C\O)C[C@]4(C)C3CC[C@@]21C (stereo partly drawn) [Compound 7a, 2-hydroxymethylene-17β-(N-isobutyl-carboxamide)-androst-4-ene-3-one]
- inhibition at 1 µM [1, 3]: 25 ± 9.68%
- inhibition at 1 µM [2, 4]: 24.2 ± 1.13%
- melting point: 152 to 158 °C

Compound: C[C@]12CC[C@H]3[C@@H](CCC4=CC(=O)C(=CO)C[C@@]43C)[C@@H]1CC[C@@H]2C(=O)N1CCCCC1 [Compound 7b, 2-hydroxymethylene-17β-(piperidine-1-carbonyl)-androst-4-ene-3-one]
- inhibition at 1 µM [1, 3]: 52.2 ± 12.3%
- inhibition at 1 µM [2, 4]: 49.9 ± 3.08%
- melting point: 105 to 110 °C

Compound: CCN(CC)C(=O)[C@H]1CCC2C3CCC4=CC(=O)/C(=C\O)C[C@]4(C)C3CC[C@@]21C (stereo partly drawn) [Compound 7c, 2-hydroxymethylene-17β-(N,N-diethy-carboxamide)-androst-4-ene-3-one]
- inhibition at 1 µM [1, 3]: 27.9 ± 4.01%
- inhibition at 1 µM [2, 4]: 24.5 ± 8.47%
- melting point: 153 to 159 °C

Compound: COc1ccc(CCNC(=O)[C@H]2CCC3C4CCC5=CC(=O)/C(=C\O)C[C@]5(C)C4CC[C@@]32C)cc1OC (stereo partly drawn) [Compound 7d, 2-hydroxymethylene-17β-(N-(3,4-dimethoxyphenethyl)-carboxamide)-androst-4-ene-3-one]
- IC50 [1]: 580 ± 60 nM
- inhibition at 1 µM [1, 5]: 66.4 ± 4.37%
- inhibition at 1 µM [2, 6]: 69 ± 9.3%
- melting point: 121 to 129 °C

Compound: C[C@]12CC[C@H]3[C@@H](CCC4=CC(=O)C(=CO)C[C@@]43C)[C@@H]1CC[C@@H]2C(=O)NC1CC1 [Compound 7e, 2-hydroxymethylene-17β-(N-cyclopropylamino-carbonyl)-androst-4-ene-3-one]
- inhibition at 1 µM [1, 3]: 54.7 ± 5.94%
- inhibition at 1 µM [2, 4]: 45.8 ± 9.86%
- melting point: 125 to 130 °C

Compound: C=C1C[C@@]2(C)C(=CC1=O)CCC1C2CC[C@@]2(C)C1CC[C@@H]2C(=O)NCC(C)C (stereo partly drawn) [Compound 8a, 2-methylene-17β-(N-isobutyl-carboxamide)-androst-4-ene-3-one]
- inhibition at 1 µM [1, 3]: 31.1 ± 6.49%
- inhibition at 1 µM [2, 4]: 19.9 ± 12.9%
- melting point: 168 to 175 °C

Compound: C=C1C[C@@]2(C)C(=CC1=O)CC[C@H]1[C@@H]3CC[C@H](C(=O)N4CCCCC4)[C@@]3(C)CC[C@@H]12 [Compound 8b, 2-methylene-17β-(piperidine-1-carbonyl)-androst-4-ene-3-one]
- inhibition at 1 µM [1, 3]: 35.8 ± 9.58%
- inhibition at 1 µM [2, 4]: 21.2 ± 1.31%

Compound: C=C1C[C@@]2(C)C(=CC1=O)CCC1C2CC[C@@]2(C)C1CC[C@@H]2C(=O)N(CC)CC (stereo partly drawn) [Compound 8c, 2-methylene-17β-(N,N-diethy-carboxamide)-androst-4-ene-3-one]
- inhibition at 1 µM [1, 3]: 25.8 ± 4.22%
- inhibition at 1 µM [2, 4]: 18.3 ± 4.61%
- melting point: 98 to 105 °C

Compound: C=C1C[C@@]2(C)C(=CC1=O)CCC1C2CC[C@@]2(C)C1CC[C@@H]2C(=O)NCCc1ccc(OC)c(OC)c1 (stereo partly drawn) [Compound 8d, 2-methylene-17β-(N-(3,4-dimethoxyphenethyl)-carboxamide)-androst-4-ene-3-one]
- inhibition at 1 µM [1, 3]: 24.8 ± 9.02%
- inhibition at 1 µM [2, 4]: 26.1 ± 10.3%
- melting point: 74 to 78 °C

Compound: C=C1C[C@@]2(C)C(=CC1=O)CC[C@H]1[C@@H]3CC[C@H](C(=O)NC4CC4)[C@@]3(C)CC[C@@H]12 [Compound 8e, 2-methylene-17β-(N-cyclopropylamino-carbonyl)-androst-4-ene-3-one]
- inhibition at 1 µM [1, 3]: 34.1 ± 10.1%
- inhibition at 1 µM [2, 4]: 20.9 ± 10.1%
- melting point: 135 to 142 °C

Compound: CC(C)CNC(=O)[C@H]1CCC2C3CCC4=Cc5n[nH]cc5C[C@]4(C)C3CC[C@@]21C (stereo partly drawn) [Compound 9a, 17β-(N-isobutyl-carboxamide)-androst[3,2-c]pyrazole-4-ene]
- inhibition at 1 µM [1, 3]: 53.1 ± 9.71%
- inhibition at 1 µM [2, 4]: 48.7 ± 3.08%

Compound: C[C@]12Cc3c[nH]nc3C=C1CCC1C2CC[C@@]2(C)C1CC[C@@H]2C(=O)N1CCCCC1 (stereo partly drawn) [Compound 9b, 17β-(Piperidine-1-carbonyl)-androst[3,2-c]pyrazole-4-ene]
- inhibition at 1 µM [1, 3]: 59.2 ± 2.28%
- IC50 [1, 7]: 630 ± 140 nM
- inhibition at 1 µM [2, 4]: 49.6 ± 5.75%

Compound: CCN(CC)C(=O)[C@H]1CCC2C3CCC4=Cc5n[nH]cc5C[C@]4(C)C3CC[C@@]21C (stereo partly drawn) [Compound 9c, 17β-(N,N-diethy-carboxamide)-androst[3,2-c]pyrazole-4-ene]
- inhibition at 1 µM [1, 3]: 68 ± 12%
- IC50 [1, 7]: 520 ± 60 nM
- inhibition at 1 µM [2, 4]: 63.6 ± 12.5%
- melting point: 111 to 118 °C

Compound: COc1ccc(CCNC(=O)[C@H]2CCC3C4CCC5=Cc6n[nH]cc6C[C@]5(C)C4CC[C@@]32C)cc1OC (stereo partly drawn) [Compound 9d, 17β-(N-(3,4-dimethoxyphenethyl)-carboxamide)-androst[3,2-c]pyrazole-4-ene]
- IC50 (22RV1 cells; Homo sapiens, 22Rv1, 48 h, read-out: IC50 anti-proliferative activity against 22RV1, T-stimulated group): 8850 nM
- Effect on cell viability of T-treated 22RV1 cells (22RV1 cells): inhibited cell proliferation in a dose-dependent manner
- IC50 [1]: 90 ± 20 nM
- inhibition at 1 µM [1, 5]: 80.1 ± 6.73%
- inhibition at 1 µM [2, 6]: 71.9 ± 3.4%

Compound: C[C@]12Cc3c[nH]nc3C=C1CCC1C2CC[C@@]2(C)C1CC[C@@H]2C(=O)NC1CC1 (stereo partly drawn) [Compound 9e, 17β-(N-cyclopropylamino-carbonyl)-androst[3,2-c]pyrazole-4-ene]
- IC50 [1]: 230 ± 90 nM
- inhibition at 1 µM [1, 5]: 70.8 ± 9.74%
- inhibition at 1 µM [2, 6]: 79.4 ± 2.47%

Compound: CC(C)(C)NC(=O)[C@H]1CC[C@H]2[C@@H]3CC[C@H]4NC(=O)C=C[C@]4(C)[C@H]3CC[C@]12C [Finasteride, finasteride, reference compound]
- inhibition at 1 µM [1, 3]: 73.7 ± 4.22%
- inhibition at 1 µM [2, 6]: 70 ± 4.12%

Compound: CC(C)C(=O)Nc1ccc([N+](=O)[O-])c(C(F)(F)F)c1 [flutamide, reference compound]
- Effect on cell viability of T-treated 22RV1 cells (22RV1 cells): inhibited cell proliferation in a dose-dependent manner

Source: PMC6735293, “Design, synthesis, and biological evaluation of novel androst-17β-amide structurally related compounds as dual 5α-reductase inhibitors and androgen receptor antagonists” (Journal of Enzyme Inhibition and Medicinal Chemistry, 2019)
